Results on 42 compounds are retold here after the RepoRT retention time repository (doi:10.1039/c6ra10883k).

A short description of the data set: Phenomenex Kinetex XB-C18, 100 × 2.1 mm, 1.7 µm, 35 °C, 0.3 mL/min, estimated dead time 0.73 min; A: water + 0.1% formic acid; B: acetonitrile + 0.1% formic acid; gradient (min/%B) 0/5 1/5 2/10 9/33 15/46 16/70 21/90 22/90. As to conditions: stereoisomer not certain.
Regarding `CC(C)=CCCC(C)(OC1OC(CO)C(O)C(O)C1O)C1CC(C)C2(C)C3CC(OC4OC(CO)C(O)C(O)C4OC4OC(CO)C(O)C(O)C4O)C4C(C)(C)C(O)CCC4(C)C3CC(O)C12` (configuration not stated), the LC retention time is 7.5 min.
The figure for `CC(C)=CCCC(C)(OC1OC(CO)C(O)C(O)C1O)C1CCC2(C)C1C(O)CC1C3(C)CCC(O)C(C)(C)C3C(OC3OC(CO)C(O)C(O)C3OC3OCC(O)C(O)C3O)CC12C` (configuration not stated) is 7.68 min.
On to `CC(C)=CCCC(C)(O)C1CCC2(C)C1C(O)CC1C3(C)CCC(O)C(C)(C)C3C(OC3OC(CO)C(O)C(O)C3OC3OC(C)C(O)C(O)C3O)CC12C` (configuration not stated), for which the LC retention time is 10.9 min.
With `O=C(C=Cc1ccc(O)cc1)C1=C(O)C2=C(OC3(C2)OCC(O)C(O)C3O)C(O)(C2OC(CO)C(O)C(O)C2O)C1=O` (configuration not stated), the LC retention time was 6.76 min.
Turning to `CC(C)=CCCC(C)(OC1OC(COC2OC(CO)C(O)C(OC3OCC(O)C(O)C3O)C2O)C(O)C(O)C1O)C1CCC2(C)C1C(O)CC1C3(C)CCC(OC4OC(CO)C(O)C(O)C4OC4OC(CO)C(O)C(O)C4O)C(C)(C)C3CCC12C` (configuration not stated), the LC retention time is 10.5 min.
The result for `O=C1C(=C(O)C=Cc2ccc(O)cc2)C(O)=C(C2OC(CO)C(O)C(O)C2O)C(=O)C1(O)C1OC(CO)C(O)C(O)C1O` (configuration not stated) reads 4.17 min; that for `CC(C)=CCCC(C)(OC1OC(COC2OC(CO)C(O)C2O)C(O)C(O)C1O)C1CCC2(C)C1C(O)CC1C3(C)CCC(OC4OC(CO)C(O)C(O)C4OC4OC(CO)C(O)C(O)C4O)C(C)(C)C3CCC12C` (configuration not stated), 11.2 min.
The result for `C=C(CCC=C(C)C)C1CCC2(C)C1C(O)CC1C3(C)CCC(O)C(C)(C)C3C(OC3OC(CO)C(O)C(O)C3OC3OCC(O)C(O)C3O)CC12C` (configuration not stated) reads 14 min; that for `O=c1c(OC2OC(CO)C(O)C(O)C2O)c(-c2ccc(O)cc2)oc2cc(O)cc(O)c12` (configuration not stated), 6.86 min.
The result for `CC(C)=CCCC(C)(O)C1CCC2(C)C1C(O)CC1C3(C)CCC(O)C(C)(C)C3C(OC3OC(CO)C(O)C(O)C3OC3OC(CO)C(O)C(O)C3O)CC12C` (configuration not stated) reads 10.1 min; that for `CC1OC(OCC2OC(Oc3c(-c4ccc(O)cc4)oc4cc(O)cc(O)c4c3=O)C(O)C(O)C2O)C(O)C(O)C1O` (configuration not stated), 6.6 min.
Consider `CC(C)=CCCC(C)(O)C1CCC2(C)C1C(O)CC1C3(C)CCC(O)C(C)(C)C3C(O)CC12C` (configuration not stated), for which the LC retention time was 16.6 min.
As for `O=c1c(O)c(-c2ccc(O)c(O)c2)oc2cc(OC3OC(CO)C(O)C(O)C3O)cc(O)c12` (configuration not stated), the LC retention time was 6.12 min.
The result for `C=C(CCC=C(C)C)C1CCC2(C)C1C(O)CC1C3(C)CCC(O)C(C)(C)C3C(OC3OC(CO)C(O)C(O)C3O)CC12C` (configuration not stated) reads 14.9 min.
The figure for `CC(C)=CCCC(C)(OC1OC(COC2OC(CO)C(O)C(O)C2O)C(O)C(O)C1O)C1CCC2(C)C1C(O)CC1C3(C)CCC(O)C(C)(C)C3C(OC3OC(CO)C(O)C(O)C3O)CC12C` (configuration not stated) is 7.09 min.
The figure for `CC(C)=CCCC(C)(OC1OC(CO)C(O)C(O)C1O)C1CCC2(C)C1C(O)CC1C3(C)CCC(OC4OC(CO)C(O)C(O)C4OC4OC(CO)C(O)C(O)C4O)C(C)(C)C3=CC(O)C12C` (configuration not stated) is 8.82 min; for `CCCC=C1OC(=O)C2=C1CCC1C3C=C4C(=O)OC(=CCCC)C4(CC3)C21` (configuration not stated) it is 18.2 min; for `O=C(O)CC(C1=C(O)C(=C(O)C=Cc2ccc(O)cc2)C(=O)C(O)(C2OC(CO)C(O)C(O)C2O)C1=O)c1ccc(O)cc1` (configuration not stated) it is 7.95 min.
Consider `CC(C)=CCCC(C)(OC1OC(COC2OCC(O)C(O)C2O)C(O)C(O)C1O)C1CCC2(C)C1C(O)CC1C3(C)CCC(OC4OC(CO)C(O)C(O)C4OC4OC(CO)C(O)C(O)C4O)C(C)(C)C3CCC12C` (configuration not stated), for which the LC retention time was 11.6 min.
The figure for `CC1(C)CCC2(C(=O)OC3OC(CO)C(O)C(O)C3O)CCC3(C)C(=CCC4C5(C)CCC(OC6OC(C(=O)O)C(O)C(O)C6OC6OC(CO)C(O)C(O)C6O)C(C)(C)C5CCC43C)C2C1` (configuration not stated) is 11.3 min; for `CC(C)=CCCC(C)(OC1OC(COC2OC(COC3OCC(O)C(O)C3O)C(O)C(O)C2O)C(O)C(O)C1O)C1CCC2(C)C1C(O)CC1C3(C)CCC(OC4OC(CO)C(O)C(O)C4OC4OC(CO)C(O)C(O)C4O)C(C)(C)C3CCC12C` (configuration not stated) it is 10.2 min.
The figure for `CC(C)=CCCC(C)(OC1OC(CO)C(O)C(O)C1O)C1CCC2(C)C1C(O)CC1C3(C)CCC(OC4OC(CO)C(O)C(O)C4O)C(C)(C)C3CCC12C` (configuration not stated) is 15.4 min; for `CCCC=C1OC(=O)C2=C1CCC=C2` it is 16.4 min.
Turning to `CC(C)=CCCC(C)(OC1OC(CO)C(O)C(O)C1O)C1CCC2(C)C1C(O)CC1C3(C)CCC(O)C(C)(C)C3C(OC3OC(COC4OC(CO)C(O)C(O)C4O)C(O)C(O)C3O)CC12C` (configuration not stated), the LC retention time was 7.28 min.
The result for `CC(C)=CCCC(C)(OC1OC(CO)C(O)C(O)C1O)C1CCC2(C)C1C(O)CC1C3(C)CCC(OC4OC(CO)C(O)C(O)C4OC4OC(COC(=O)CC(=O)O)C(O)C(O)C4O)C(C)(C)C3CCC12C` (configuration not stated) reads 12.7 min.
Turning to `CC(C)=CCCC(C)(OC1OC(CO)C(O)C(O)C1O)C1CCC2(C)C1C(O)CC1C3(C)CCC(OC4OC(COC5OC(CO)C(O)C(O)C5O)C(O)C(O)C4O)C(C)(C)C3CCC12C` (configuration not stated), the LC retention time is 13.2 min.
`CC(C)=CCCC(C)(OC1OC(CO)C(O)C(O)C1O)C1CCC2(C)C1C(O)CC1C3(C)CCC(O)C(C)(C)C3C(OC3OC(CO)C(O)C(O)C3O)CC12C` (configuration not stated): the LC retention time was 8.07 min.
Regarding `O=c1cc(-c2ccc(O)c(O)c2)oc2cc(OC3OC(CO)C(O)C(O)C3O)cc(O)c12` (configuration not stated), the LC retention time was 6.28 min.
Take `CC(C)=CCCC(C)(OC1OC(COC2OC(CO)C(O)C(O)C2O)C(O)C(O)C1O)C1CCC2(C)C1C(O)CC1C3(C)CCC(OC4OC(CO)C(O)C(O)C4OC4OC(CO)C(O)C(O)C4O)C(C)(C)C3CCC12C` (configuration not stated): the LC retention time was 10.9 min.
The result for `CC(C)=CCCC(C)(OC1OC(CO)C(O)C(O)C1O)C1CCC2(C)C1C(O)CC1C3(C)CCC(OC4OC(CO)C(O)C(O)C4OC4OC(CO)C(O)C(O)C4O)C(C)(C)C3C(O)CC12C` (configuration not stated) reads 9.5 min.
Turning to `CC(C)=CCCC(C)(OC1OC(CO)C(O)C(O)C1O)C1CCC2(C)C1C(O)CC1C3(C)CCC(O)C(C)(C)C3CCC12C` (configuration not stated), the LC retention time was 17.3 min.
Regarding `CC(C)=CCCC(C)(OC1OC(COC2OC(CO)C(O)C(O)C2O)C(O)C(O)C1O)C1CCC2(C)C1C(O)CC1C3(C)CCC(OC4OC(CO)C(O)C(O)C4OC4OC(COC(=O)CC(=O)O)C(O)C(O)C4O)C(C)(C)C3CCC12C` (configuration not stated), the LC retention time is 11.1 min.
With `CC(C)=CCCC(C)(OC1OC(CO)C(O)C(O)C1O)C1CCC2(C)C1C(O)CC1C3(C)CCC(OC4OC(CO)C(O)C(O)C4OC4OC(CO)C(O)C(O)C4O)C(C)(C)C3CCC12C` (configuration not stated), the LC retention time was 12.4 min.
Turning to `O=c1c(O)c(-c2ccc(O)cc2)oc2cc(O)cc(O)c12`, the LC retention time was 10.3 min.
`COc1cc(C=CCO)cc(OC)c1OC1OC(CO)C(O)C(O)C1O` (configuration not stated): the LC retention time is 3.9 min.
With `O=C(C=Cc1ccc(O)c(O)c1)OC1CC(O)(C(=O)O)CC(OC(=O)C=Cc2ccc(O)c(O)c2)C1O` (configuration not stated), the LC retention time was 6.92 min.
The figure for `CC(C)=CCCC(C)(OC1OC(COC2OC(CO)C(O)C(OC3OCC(O)C(O)C3O)C2O)C(O)C(O)C1O)C1CCC2(C)C1C(O)CC1C3(C)CCC(OC4OC(CO)C(O)C(O)C4OC4OC(CO)C(O)C(O)C4OC4OCC(O)C(O)C4O)C(C)(C)C3CCC12C` (configuration not stated) is 9.85 min.
The figure for `O=C(C=Cc1ccc(O)cc1)C1=C(O)C2=C(OC(C(O)C(O)C(O)CO)C2C2=C(O)C(=C(O)C=Cc3ccc(O)cc3)C(=O)C(O)(C3OC(CO)C(O)C(O)C3O)C2=O)C(O)(C2OC(CO)C(O)C(O)C2O)C1=O` (configuration not stated) is 6.67 min; for `COc1cc(C=CC(=O)O)ccc1O` it is 5.97 min; for `O=c1c(O)c(-c2ccc(O)c(O)c2)oc2cc(O)cc(O)c12` it is 8.93 min.
The figure for `CC1OC(OCC2OC(Oc3c(-c4ccc(O)c(O)c4)oc4cc(O)cc(O)c4c3=O)C(O)C(O)C2O)C(O)C(O)C1O` (configuration not stated) is 5.99 min; for `O=c1cc(-c2ccc(O)c(O)c2)oc2cc(O)cc(O)c12` it is 8.91 min.
